Source: patent US20090133318A1, “Anthranilamide insecticides” (priority 2004, published 2009)

Columns and labels:
Format in all cases: in vivo
[1] = test system: green peach aphid (Myzus persicae); test: Test C: control of green peach aphid through contact and/or systemic means, radish plant
Protocol: (§1) Test compounds or mixtures were formulated using a solution containing 10% acetone, 90% water and 300 ppm X-77™ Spreader Lo-Foam Formula non-ionic surfactant containing alkylarylpolyoxyethylene, free fatty acids, glycols and 2-propanol (Loveland Industries, Inc. Greeley, Colo., USA). The formulated compounds or mixtures were applied in 1 mL of liquid through a SUJ2 atomizer nozzle with ⅛ JJ custom body (Spraying Systems Co. Wheaton, Ill., USA) positioned 1.27 cm (0.5 inches) above the top of each test unit. All experimental compounds in these tests were sprayed at 10 ppm replicated three times. For experimental mixtures in these tests, to obtain the desired mixture concentrations of each compound, twice the desired concentration of each of the two mixture partner compounds were mixed together in equal volumes.
For evaluating control of green peach aphid (Myzus persicae) through contact and/or systemic means, the test unit consisted of a small open container with a 12- to 15-day-old radish plant inside. This was pre-infested by placing on a leaf of the test plant 30-40 aphids on a piece of leaf excised from a culture plant (cut-leaf method). The larvae moved onto the test plant as the leaf piece desiccated. After pre-infestation, the soil of the test unit was covered with a layer of sand.
All test compounds were formulated and sprayed at 50 ppm as described for Test A and replicated three times. Test mixtures were formulated as described for Test A and replicated three times. After spraying of the formulated test compound or mixture, each test unit was allowed to dry for 1 hour and then a black, screened cap was placed on top. The test units were held for 6 days in a growth chamber at 19-21° C. and 50-70% relative humidity. Dead and total number of aphids were counted in each test unit to determine percent mortality.

[2] = test system: corn planthopper (Peregrinus maidis); test: Test F: control of corn planthopper through contact and/or systemic means, corn plant (mixtures)
Protocol: as §1
For evaluating control of corn planthopper (Peregrinus maidis) through contact and/or systemic means, each test unit consisted of a small open cylindrical container with a 3- to 4 day-old corn (maize) plant (spike) inside. White sand was added to the top of the soil prior to application. Test mixtures were formulated and sprayed with 3 replications as described for Test A. After spraying, the test units were allowed to dry for 1 hour before they were post-infested with 10 to 20 corn planthoppers (18- to 20-day-old nymphs) by sprinkling them onto the sand with a salt shaker. A black, screened cap was placed on the top of each container. The test units were held for 6 days in a growth chamber at 19-21° C. and 50-70% relative humidity. Dead and total number of corn planthoppers were counted in each test unit to determine percent mortality.

[3] = test system: diamondback moth (Plutella xylostella); test: Test A: control of diamondback moth, foliar spray on radish plant
Excerpt: For evaluating control of diamondback moth (Plutella xylostella) the test unit consisted of a small open container with a 12-14-day-old radish plant inside. This was pre-infested with 10-15 neonate larvae on a piece of insect diet by use of a core sampler to remove a plug from a sheet of hardened insect diet having many larvae growing on it and transfer the plug containing larvae and diet to the test unit. The larvae moved onto the test plant as the diet plug dried out.
as §1, with “All experimental compounds in these tests were sprayed at 10 ppm replicated three times.” left out
After spraying of the formulated test compound or mixture, each test unit was allowed to dry for 1 hour and then a black, screened cap was placed on top. The test units were held for 6 days in a growth chamber at 25° C. and 70% relative humidity. Plant feeding damage was then visually assessed based on foliage consumed.

[4] = test system: western flower thrips (Frankliniella occidentalis Pergande); test: Test G: control of western flower thrips through contact and/or systemic means, bean plant (mixtures)
Protocol: as §1
For evaluating control of the western flower thrips (Frankliniella occidentalis Pergande) through contact and/or systemic means, each test unit consisted of a small open container with a 5- to 7-day-old bean (var. Soleil) plant inside.
Test mixtures were formulated and sprayed with 3 replications as described for Test A. After spraying, the test units were allowed to dry for 1 hour, 22 to 27 adult thrips were added to each unit and then a black, screened cap was placed on top. The test units were held for 7 days at 25° C. and 45-55% relative humidity. The amount of plant damage for each test unit was rated to determine the percent plant protection.

Cc1cc(Cl)cc(C(=O)NCC2CC2)c1NC(=O)c1cc(Br)nn1-c1ncccc1Cl [Compound 2]
Mortality (obs) ([1]; 8 ppm): 4% | Mortality (obs) ([1]; 50 ppm): 17% | Mortality (obs) ([1]; 250 ppm): 76% | Mortality (obs) ([2]; 30 ppm): 2% | Mortality (obs) ([2]; 100 ppm): 10% | Mortality (obs) ([2]; 250 ppm): 31% | % protection (obs) ([3]; 0.03 ppm): 37% | % protection (obs) ([3]; 0.04 ppm): 77% | % protection (obs) ([3]; 0.06 ppm): 93% | % protection (obs) ([4]; 5 ppm): 20% | % protection (obs) ([4]; 150 ppm): 27% | % protection (obs) ([4]; 250 ppm): 53%

Imidacloprid
Mortality (obs) ([1]; 0.08 ppm): 5% | Mortality (obs) ([1]; 0.15 ppm): 44% | Mortality (obs) ([1]; 0.3 ppm): 50% | Mortality (obs) ([2]; 0.08 ppm): 2% | Mortality (obs) ([2]; 0.2 ppm): 10% | Mortality (obs) ([2]; 0.8 ppm): 71% | % protection (obs) ([3]; 0.8 ppm): 73% | % protection (obs) ([3]; 17 ppm): 80% | % protection (obs) ([3]; 50 ppm): 90% | % protection (obs) ([4]; 11 ppm): 27% | % protection (obs) ([4]; 77 ppm): 40% | % protection (obs) ([4]; 250 ppm): 90%

Thiamethoxam
Mortality (obs) ([1]; 0.2 ppm): 44% | Mortality (obs) ([1]; 0.4 ppm): 73% | Mortality (obs) ([1]; 0.6 ppm): 87% | Mortality (obs) ([2]; 0.2 ppm): 19% | Mortality (obs) ([2]; 0.4 ppm): 73% | Mortality (obs) ([2]; 0.6 ppm): 100% | % protection (obs) ([3]; 30 ppm): 43% | % protection (obs) ([3]; 40 ppm): 73% | % protection (obs) ([3]; 50 ppm): 90% | % protection (obs) ([4]; 5 ppm): 0% | % protection (obs) ([4]; 70 ppm): 77% | % protection (obs) ([4]; 250 ppm): 100%
